Measurements taken from the Kinase Knowledgebase extract (Sharma et al. 2016).

These compounds were tested against PIK3CD (Human) (UniProt O00329) (assay: Assessment of PI3KCD Kinase Activity).
PIK3CD (Human), sequence (O00329 whole entry, looked up): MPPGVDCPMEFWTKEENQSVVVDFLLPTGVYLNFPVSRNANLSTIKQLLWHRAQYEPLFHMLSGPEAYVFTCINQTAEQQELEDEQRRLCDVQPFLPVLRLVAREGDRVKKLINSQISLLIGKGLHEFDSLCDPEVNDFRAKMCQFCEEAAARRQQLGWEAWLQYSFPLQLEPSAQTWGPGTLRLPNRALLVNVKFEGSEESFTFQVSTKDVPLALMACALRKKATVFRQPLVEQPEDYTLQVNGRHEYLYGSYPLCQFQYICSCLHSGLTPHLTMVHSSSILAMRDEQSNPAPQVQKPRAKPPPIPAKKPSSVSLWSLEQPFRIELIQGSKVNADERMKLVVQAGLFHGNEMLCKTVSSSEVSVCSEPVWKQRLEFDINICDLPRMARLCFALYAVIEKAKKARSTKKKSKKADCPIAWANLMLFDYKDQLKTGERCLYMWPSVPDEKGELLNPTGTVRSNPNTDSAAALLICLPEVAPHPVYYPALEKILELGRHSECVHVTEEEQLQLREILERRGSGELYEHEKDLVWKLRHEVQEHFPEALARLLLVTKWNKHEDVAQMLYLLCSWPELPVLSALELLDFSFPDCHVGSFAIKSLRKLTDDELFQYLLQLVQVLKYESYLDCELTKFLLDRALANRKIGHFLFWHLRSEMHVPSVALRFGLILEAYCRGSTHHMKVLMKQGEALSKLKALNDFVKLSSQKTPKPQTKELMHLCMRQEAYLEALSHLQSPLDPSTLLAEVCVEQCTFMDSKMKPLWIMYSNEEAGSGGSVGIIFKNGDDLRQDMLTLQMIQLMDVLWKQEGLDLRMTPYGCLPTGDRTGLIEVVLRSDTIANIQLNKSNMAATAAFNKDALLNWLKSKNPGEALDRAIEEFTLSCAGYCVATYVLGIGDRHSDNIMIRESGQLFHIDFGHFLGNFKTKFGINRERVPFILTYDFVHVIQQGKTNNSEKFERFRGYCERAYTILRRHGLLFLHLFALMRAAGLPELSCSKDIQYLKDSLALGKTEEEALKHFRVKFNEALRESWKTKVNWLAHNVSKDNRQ
In the case of `Cc1cccc2cc(Cn3nc(C#C[C@@H](C)O)c4c(N)ncnc43)n(C3CC3)c(=O)c12`, the IC50 is reported as less than 100 nM. In the case of `Cc1ccccc1-n1c(Cn2nc(Br)c3c(N)ncnc32)nc2sc(C)c(C)c2c1=O`, the IC50 is reported as less than 100 nM. For `Cc1csc2nc(Cn3nc(-c4ccc(Cl)c(O)c4)c4c(N)ncnc43)n(-c3ccccc3F)c(=O)c12`, the IC50 was less than 100 nM. Work on `COc1ccccc1-n1c(Cn2nc(I)c3c(N)ncnc32)cc2cccc(C)c2c1=O` yielded an IC50 of less than 100 nM. Compound `Cc1ccccc1-n1c(Cn2nc(C#C[C@H](C)O)c3c(N)ncnc32)nc2scc(C)c2c1=O` has an IC50 of less than 100 nM. `Cc1ccccc1-n1c(Cn2nc(-c3cc(O)cc(F)c3)c3c(N)ncnc32)nc2cnn(C)c2c1=O` was tested, and the IC50 was less than 100 nM. For `Nc1ncnc2c1c(I)nn2Cc1cc2cccc(Cl)c2c(=O)n1C1CC1`, the IC50 was less than 100 nM. `Cc1cccc2cc(Cn3nc(I)c4c(N)ncnc43)n(C(C)C)c(=O)c12` showed an IC50 of less than 100 nM. In the case of `CC(C)n1c(Cn2nc(-c3cc(O)cc(F)c3)c3c(N)ncnc32)cc2cccc(F)c2c1=O`, the IC50 is reported as less than 100 nM. With `Cc1ccccc1-n1c(Cn2nc(C#N)c3c(N)ncnc32)cc2cccc(C)c2c1=O` the IC50 was less than 100 nM. Work on `Cc1csc2nc(Cn3nc(C#CCO)c4c(N)ncnc43)n(-c3ccccc3F)c(=O)c12` yielded an IC50 of less than 100 nM. Work on `Cc1cccc2cc(Cn3nc(C#N)c4c(N)ncnc43)n(-c3ccccc3F)c(=O)c12` yielded an IC50 of less than 100 nM. Work on `Cc1ccccc1-n1c(Cn2nc(-c3cccc(O)c3)c3c(N)ncnc32)cc2ccccc2c1=O` yielded an IC50 of less than 100 nM. Compound `Nc1ncnc2c1c(-c1cc(O)cc(F)c1)nn2Cc1cc2cccc(F)c2c(=O)n1-c1ccccc1F` has an IC50 of less than 100 nM. `Cc1ccnc2nc(Cn3nc(I)c4c(N)ncnc43)n(-c3ccccc3F)c(=O)c12` showed an IC50 of less than 100 nM. `Cc1cccc2cc(Cn3nc(-c4ccc(F)c(O)c4)c4c(N)ncnc43)n(-c3ccccc3F)c(=O)c12` gave an IC50 of less than 100 nM. `Cc1csc2nc(Cn3nc(Br)c4c(N)ncnc43)n(-c3ccccc3C(F)(F)F)c(=O)c12` showed an IC50 of less than 100 nM. For `Cc1ccccc1-n1c(Cn2nc(Br)c3c(N)ncnc32)nc2scc(C(F)(F)F)c2c1=O`, the IC50 was less than 100 nM. Work on `Cc1ccccc1-n1c(Cn2nc(C#C[C@@H](C)O)c3c(N)ncnc32)nc2scc(C)c2c1=O` yielded an IC50 of less than 100 nM. In the case of `Cc1ccccc1-n1c(Cn2nc(-c3cc(O)cc(F)c3)c3c(N)nccc32)cc2cccc(C)c2c1=O`, the IC50 is reported as less than 100 nM. `CC(C)n1c(Cn2nc(-c3cc(O)cc(F)c3)c3c(N)ncnc32)cc2cccc(Cl)c2c1=O` was tested, and the IC50 was less than 100 nM. Compound `Cc1cccc2cc(Cn3nc(I)c4c(N)ncnc43)n(C3CCC3)c(=O)c12` has an IC50 of less than 100 nM. `Cc1cccc2cc(Cn3nc(C#C[C@@H](C)O)c4c(N)ncnc43)n(-c3ccccc3O)c(=O)c12` was tested, and the IC50 was less than 100 nM. `Cc1ccnc2cc(Cn3nc(-c4cc(O)cc(F)c4)c4c(N)ncnc43)n(-c3ccccc3F)c(=O)c12` gave an IC50 of less than 100 nM. `Cc1ccccc1-n1c(Cn2nc(Br)c3c(N)ncnc32)nc2scc(C)c2c1=O` gave an IC50 of less than 100 nM. With `C=Cc1nn(Cc2cc3cccc(C)c3c(=O)n2-c2ccccc2C)c2ncnc(N)c12` the IC50 was less than 100 nM. In the case of `Cc1ccccc1-n1c(Cn2nc(-c3cc(O)cc(F)c3)c3c(N)ncnc32)cc2ncccc2c1=O`, the IC50 is reported as less than 100 nM. With `Cc1csc2nc(Cn3nc(-c4cccc(O)c4)c4c(N)ncnc43)n(-c3ccccc3F)c(=O)c12` the IC50 was less than 100 nM. `Cc1ccccc1-n1c(Cn2nc(-c3cccc(O)c3)c3c(N)nccc32)cc2cccc(C)c2c1=O` showed an IC50 of less than 100 nM. Compound `Cc1cccc2cc(Cn3nc(-c4cc(O)cc(F)c4)c4c(N)ncnc43)n(C3CCOCC3)c(=O)c12` has an IC50 of less than 100 nM. `COc1ccccc1-n1c(Cn2nc(Cl)c3c(N)ncnc32)nc2scc(C)c2c1=O` was tested, and the IC50 was less than 100 nM. For `Cc1csc2nc(Cn3nc(I)c4c(N)ncnc43)n(-c3ccccc3F)c(=O)c12`, the IC50 was less than 100 nM. `Cc1ccccc1-n1c(Cn2nc(Cl)c3c(N)ncnc32)nc2nccc(C)c2c1=O` showed an IC50 of less than 100 nM. Work on `Cc1cccc2cc(Cn3nc(C#C[C@@H](C)O)c4c(N)ncnc43)n(C3CCCC3)c(=O)c12` yielded an IC50 of less than 100 nM. For `Cc1ccccc1-n1c(Cn2nc(Cl)c3c(N)ncnc32)nc2scc(C)c2c1=O`, the IC50 was less than 100 nM. Work on `Cc1csc2nc(Cn3nc(-c4ccc(F)c(O)c4)c4c(N)ncnc43)n(-c3ccccc3F)c(=O)c12` yielded an IC50 of less than 100 nM. With `CCc1ccccc1-n1c(Cn2nc(C#C[C@@H](C)O)c3c(N)ncnc32)nc2scc(C)c2c1=O` the IC50 was less than 100 nM. Work on `Cc1ccccc1-n1c(Cn2nc(I)c3c(N)ncnc32)nc2scc(C)c2c1=O` yielded an IC50 of less than 100 nM. `Cc1ccccc1-n1c(Cn2nc(Cl)c3c(N)ncnc32)cc2cccc(C)c2c1=O` was tested, and the IC50 was less than 100 nM. `Cc1ccccc1-n1c(Cn2nc(-c3cc(O)cc(F)c3)c3c(N)ncnc32)nc2snc(C)c2c1=O` was tested, and the IC50 was less than 100 nM. `CC(C)n1c(Cn2nc(-c3cccc(O)c3)c3c(N)ncnc32)cc2ccccc2c1=O` was tested, and the IC50 was less than 100 nM. `COc1ccccc1-n1c(Cn2nc(-c3cccc(O)c3)c3c(N)ncnc32)nc2scc(C)c2c1=O` was tested, and the IC50 was less than 100 nM. Work on `Cc1ccccc1-n1c(Cn2nc(-c3cc(O)cc(F)c3)c3c(N)ncnc32)nc2c(C)nn(C)c2c1=O` yielded an IC50 of less than 100 nM. `CCc1ccccc1-n1c(Cn2nc(C#C[C@@H](C)O)c3c(N)ncnc32)cc2cccc(C)c2c1=O` showed an IC50 of less than 100 nM. In the case of `Cc1csc2nc(Cn3nc(C#C[C@@H](C)O)c4c(N)ncnc43)n(-c3ccccc3C(F)(F)F)c(=O)c12`, the IC50 is reported as less than 100 nM. `Cc1cccc2cc(Cn3nc(I)c4c(N)ncnc43)n(-c3ccccc3F)c(=O)c12` showed an IC50 of less than 100 nM. Work on `Cc1cccc2cc(Cn3nc(C#C[C@@H](C)O)c4c(N)ncnc43)n(-c3ccccc3F)c(=O)c12` yielded an IC50 of less than 100 nM. In the case of `Cc1ccccc1-n1c(Cn2nc(-c3cccc(O)c3)c3c(N)ncnc32)nc2scc(C(F)(F)F)c2c1=O`, the IC50 is reported as less than 100 nM. With `Cc1cccc2cc(Cn3nc(-c4cccc(O)c4)c4c(N)ncnc43)n(C3CCC3)c(=O)c12` the IC50 was less than 100 nM. Compound `Cc1cccc2cc(Cn3nc(-c4cn[nH]c4)c4c(N)ncnc43)n(-c3ccccc3F)c(=O)c12` has an IC50 of less than 100 nM. Compound `Cc1ccccc1-n1c(Cn2nc(-c3cc(O)cc(F)c3)c3c(N)ncnc32)nc2scc(C(F)(F)F)c2c1=O` has an IC50 of less than 100 nM. `CCn1c(Cn2nc(-c3cccc(O)c3)c3c(N)ncnc32)cc2cccc(C)c2c1=O` showed an IC50 of less than 100 nM. `Cc1cccc2cc(Cn3nc(-c4cc(O)cc(F)c4)c4c(N)ncnc43)n(C3CCCCC3)c(=O)c12` was tested, and the IC50 was less than 100 nM. In the case of `Cc1cccc2cc(Cn3nc(-c4cn[nH]c4)c4c(N)ncnc43)n(-c3cccc(F)c3)c(=O)c12`, the IC50 is reported as less than 100 nM. Work on `Cc1ccccc1-n1c(Cn2nc(-c3cc(O)cc(F)c3)c3c(N)ncnc32)nc2sc(C)c(C)c2c1=O` yielded an IC50 of less than 100 nM. With `Cc1cccc2cc(Cn3nc(-c4cc(O)cc(F)c4)c4c(N)ncnc43)n(C3CCC3)c(=O)c12` the IC50 was less than 100 nM. `Cc1cccc2cc(Cn3nc(-c4cnn(CCO)c4)c4c(N)ncnc43)n(-c3ccccc3F)c(=O)c12` gave an IC50 of less than 100 nM. In the case of `Cc1ccccc1-n1c(Cn2nc(C#C[C@@H](C)O)c3c(N)ncnc32)cc2cccc(C)c2c1=O`, the IC50 is reported as less than 100 nM. `CC(C)n1c(Cn2nc(-c3cccc(O)c3)c3c(N)ncnc32)cc2cccc(Cl)c2c1=O` showed an IC50 of less than 100 nM. In the case of `Cc1cccc2cc(Cn3nc(-c4cc(O)cc(F)c4)c4c(N)ncnc43)n(C)c(=O)c12`, the IC50 is reported as less than 100 nM. `Cc1csc2nc(Cn3nc(Br)c4c(N)ncnc43)n(-c3ccccc3F)c(=O)c12` showed an IC50 of less than 100 nM. For `CC(C)n1c(Cn2nc(-c3cc(O)cc(F)c3)c3c(N)ncnc32)cc2ccccc2c1=O`, the IC50 was less than 100 nM. For `Cc1csc2nc(Cn3nc(I)c4c(N)ncnc43)n(-c3ccccc3Cl)c(=O)c12`, the IC50 was less than 100 nM. `Cc1cccnc1-n1c(Cn2nc(-c3cccc(O)c3)c3c(N)ncnc32)cc2cccc(C)c2c1=O` showed an IC50 of less than 100 nM. With `Cc1ccncc1-n1c(Cn2nc(I)c3c(N)ncnc32)cc2cccc(C)c2c1=O` the IC50 was less than 100 nM.
